No end group written: not given here.
Columns and labels:
[1] = test system: Enterococcus faecalis (Ward’s 85W 1100); type: cell-based
Procedure: (§1) The MIC of bawcin against each bacterial strain was determined using the spot-on-lawn assay as described previously with modifications. A Mueller Hinton (MH) double-agar plate was prepared by pouring 5 mL of 0.75% MH agar inoculated with 50 µL of 0.10 OD625 bacterial suspension onto 20 mL of dried 1.5% MH agar. Bawcin diluted with sterile water to 128, 64, 32, 16, 8, 4, 2, and 1 µM was spotted in 10 µL aliquots onto the top agar layer, along with 10 µL of an antibiotic positive control (ampicillin or kanamycin) and sterile water negative control. Plates were incubated at 37 °C for 16–20 h and the MIC was identified as the lowest concentration in which a zone of inhibition was observed, where partial bacterial growth within the zone of inhibition was considered HR. Assays were performed in triplicate.

[2] = test system: Bacillus subtilis (Ward’s 85W 1650); type: cell-based
Procedure: as §1

[3] = test system: Staphylococcus aureus ATCC 6538; type: cell-based
Procedure: as §1

[4] = test system: Listeria monocytogenes ATCC 19115; type: cell-based
Procedure: as §1

[5] = test system: Bacillus cereus (Ward’s 85W 0200); type: cell-based
Procedure: as §1

[6] = test system: Lactobacillus casei (Ward’s 85W 1682); type: cell-based
Procedure: as §1

[7] = test system: Lactobacillus delbruekii ssp. bulgaricus (VWR 470179-126); type: cell-based
Procedure: as §1

[8] = test system: Micrococcus luteus (Ward’s 85W 0966); type: cell-based
Procedure: as §1

[9] = test system: Lactococcus lactis ssp. lactis (Ward’s 85W 1774); type: cell-based
Procedure: as §1

papain = molecular target: T1, papain (Carica papaya, UniProt P00784); test: Protease sensitivity testing (residual activity by spot-on-lawn assay); type: in vitro ADME; conditions: spot-on-lawn against M. luteus, triplicate
T1 construct: purchased Scholar Chemistry
T1 sequence (P00784 134-345): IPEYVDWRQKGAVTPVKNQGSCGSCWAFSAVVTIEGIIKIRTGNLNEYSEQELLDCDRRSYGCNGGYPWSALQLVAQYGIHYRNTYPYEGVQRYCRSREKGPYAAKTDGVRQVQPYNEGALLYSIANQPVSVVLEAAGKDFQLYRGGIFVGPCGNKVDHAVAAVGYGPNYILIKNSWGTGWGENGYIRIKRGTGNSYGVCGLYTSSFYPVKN
Procedure: as §1
(§2) Protease stability testing was evaluated as described previously with modification. Papain (Scholar Chemistry, Rochester, NY, USA), pepsin (Northwest Scientific, Billings, MT, USA), trypsin (Sigma-Aldrich, Burlington, MA, USA), alpha-chymotrypsin (Worthington, Lakewood, NJ, USA), and proteinase K (Fisher Scientific, Ottawa, ON, Canada) were prepared to a final concentration of 1 mg/mL in 50 mM phosphate buffer adjusted to pH 2 (pepsin), 6 (papain), and 8 (proteinase K, trypsin, alpha-chymotrypsin). Bawcin was combined with each protease to final concentrations of 1×, 2×, and 4× the MIC. Bawcin’s residual antimicrobial activity against M. luteus was determined via spot-on-lawn assay as described above. The following samples were spotted for each assay: (1) protease combined with bawcin at each concentration, bawcin alone at each concentration, buffer alone, protease in buffer alone, ampicillin (positive control), and sterile water (negative control), where all solutions were incubated for 1 h at 37 °C prior to spotting except ampicillin and sterile water. Assays were performed in triplicate.

trypsin = test: as above; type: in vitro ADME; conditions: 1 mg/mL trypsin in 50 mM phosphate buffer pH 8, 1 h at 37 °C, bawcin at 1×, 2×, 4× the MIC, spot-on-lawn against M. luteus, triplicate
Procedure: as §1, §2

pepsin = molecular target: T2, pepsin (Sus scrofa, UniProt P00791); test: as above; type: in vitro ADME; conditions: 1 mg/mL pepsin in 50 mM phosphate buffer pH 2, 1 h at 37 °C, bawcin at 1×, 4× the MIC (8, 16, 32 µM), spot-on-lawn against M. luteus, triplicate
T2 construct: purchased Northwest Scientific
T2 sequence (P00791 60-385): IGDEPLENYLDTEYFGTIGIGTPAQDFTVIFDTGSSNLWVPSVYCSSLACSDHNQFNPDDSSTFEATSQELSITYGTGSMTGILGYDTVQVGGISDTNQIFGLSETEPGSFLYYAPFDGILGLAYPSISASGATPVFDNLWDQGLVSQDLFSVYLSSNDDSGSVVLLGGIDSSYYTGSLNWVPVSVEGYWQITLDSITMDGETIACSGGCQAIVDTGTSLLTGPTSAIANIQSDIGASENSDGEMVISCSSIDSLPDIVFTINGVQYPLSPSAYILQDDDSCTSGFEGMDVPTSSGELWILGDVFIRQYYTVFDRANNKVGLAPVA
Procedure: as §1, §2

proteinase K = molecular target: T3, proteinase K (Parengyodontium album, UniProt P06873); test: as above; type: in vitro ADME; conditions: 1 mg/mL proteinase K in 50 mM phosphate buffer pH 8, 1 h at 37 °C, bawcin at 1×, 2×, 4× the MIC, spot-on-lawn against M. luteus, triplicate
T3 construct: purchased Fisher Scientific
T3 sequence (P06873 106-384): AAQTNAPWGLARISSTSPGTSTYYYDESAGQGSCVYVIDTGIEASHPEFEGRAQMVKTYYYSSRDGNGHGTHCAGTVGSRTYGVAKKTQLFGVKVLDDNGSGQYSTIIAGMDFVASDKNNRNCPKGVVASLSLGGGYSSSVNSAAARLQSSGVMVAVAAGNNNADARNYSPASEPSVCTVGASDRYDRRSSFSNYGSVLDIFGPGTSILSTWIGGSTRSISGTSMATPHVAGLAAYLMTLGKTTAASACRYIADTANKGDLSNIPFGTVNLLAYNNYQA
Procedure: as §1, §2

alpha-chymotrypsin = molecular target: T4, alpha-chymotrypsin (Bos taurus, UniProt P00766); test: as above; type: in vitro ADME; conditions: 1 mg/mL alpha-chymotrypsin in 50 mM phosphate buffer pH 8, 1 h at 37 °C, bawcin at 1×, 2×, 4× the MIC, spot-on-lawn against M. luteus, triplicate
T4 construct: purchased Worthington
Procedure: as §1, §2

MLSFAKLVARLSASKAKWAWNNKGKVVEWIKNGATFEWISNKIDQMMG [bawcin]
MIC [1]: 32 µM
MIC [2]: 8 µM
MIC [3]: 16 µM
MIC [4]: 8 µM
MIC [5]: 16 µM
MIC [6]: 8 µM
MIC [7]: 8 µM
MIC [8]: 4 µM
MIC [9]: 4 µM
Residual antimicrobial activity when combined with papain (papain; 1 mg/mL papain in 50 mM phosphate buffer pH 6, 1 h at 37 °C, bawcin at 1×, 2×, 4× the MIC (8, 16, 32 µM)): retained its antimicrobial activity
Lowest bawcin concentration remaining active in combination with papain (papain; 1 mg/mL papain, pH 6, 1 h at 37 °C, 32, 16, 8 µM tested): 8 µM
Residual antimicrobial activity in the presence of trypsin (trypsin): lost antimicrobial activity at all concentrations tested
Residual antimicrobial activity when combined with pepsin (pepsin): only at 4× the MIC (with HR)
Residual antimicrobial activity in the presence of proteinase K (proteinase K): lost antimicrobial activity at all concentrations tested
Residual antimicrobial activity in the presence of alpha-chymotrypsin (alpha-chymotrypsin): lost antimicrobial activity at all concentrations tested

Reference: article PMC10707071, “Characterization of the Novel Leaderless Bacteriocin, Bawcin, from Bacillus wiedmannii” (International Journal of Molecular Sciences, 2023)
